Laboratory results reported in article PMC9229843, “Cancer-Related Somatic Mutations in Transmembrane Helices Alter Adenosine A1 Receptor Pharmacology” (Molecules, 2022).
Residue numbers refer to the chain shown, from its start.

Experiments:
hA1AR H78L^3.23 [1] = target: T1, hA1AR H78L^3.23 (Homo sapiens, UniProt P30542, H78L); test: yeast liquid growth assay; format: cell-based; settings: result in words
T1 sequence (P30542 1-326 H78L): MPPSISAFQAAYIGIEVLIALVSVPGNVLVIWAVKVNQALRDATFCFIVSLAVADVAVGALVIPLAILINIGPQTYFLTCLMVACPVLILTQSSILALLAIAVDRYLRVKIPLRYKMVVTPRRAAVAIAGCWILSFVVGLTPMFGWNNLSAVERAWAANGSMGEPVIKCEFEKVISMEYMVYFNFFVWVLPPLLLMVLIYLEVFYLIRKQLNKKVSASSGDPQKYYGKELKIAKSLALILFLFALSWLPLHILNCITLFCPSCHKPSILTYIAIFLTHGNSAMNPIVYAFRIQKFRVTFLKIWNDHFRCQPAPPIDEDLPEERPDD
Description: The plasmids, pDT-PGK_hA1AR, containing either wild type or mutated hA1AR were transformed into a MMY24 S. cerevisiae strain following the lithium acetate procedure.
In order to characterize the mutant hA1ARs, liquid growth assays in 96-well plates were performed to obtain concentration–growth curves as previously described. […] The overnight cultures were then diluted to 40,000 cells/mL (OD600 ≈ 0.02) in a selective medium without uracil, leucine, and histidine (YNB-ULH). For the determination of constitutive activity, 50 μL of yeast cells and 150 μL of YNB-ULH medium containing different concentrations of 3-AT and 0.8 IU/mL ADA were then added to each well. To obtain concentration–growth curves, 2 μL of various concentrations of ligands, 50 μL of yeast cells, and 150 μL of YNB-ULH medium containing 7 mM 3-AT and 0.8 IU/mL ADA were then added to each well. After incubation at 30 °C for 35 h in a Genios plate reader (TECAN, Zürich, Switzerland) with shaking for 1 min at 300 rpm every 10 min, the optical density was measured at a wavelength of 595 nm, which represented the level of yeast cell growth.
(§1) All experimental data were analyzed by GraphPad Prism 7.0 or 8.0 (GraphPad Software Inc., San Diego, CA, USA). Data from yeast liquid growth and [^35S]GTPγS binding assays were analyzed by non-linear regression using “log (agonist) vs. response (three parameters)” or “log (inhibitor) vs. response (three parameters)” to obtain potency (EC50), inhibitory potency (IC50), and efficacy (Emax or Imax) values. The radioligand displacement curves were obtained from a statistically preferred one-site or two-site binding model. pKi values were calculated from pIC50 values using the Cheng–Prusoff equation, where KD values were obtained from the homologous competition assays from this study and calculated by non-linear regression using “one site–homologous” [62].

hA1AR G279S^7.44 = target: T2, hA1AR G279S^7.44 (Homo sapiens, UniProt P30542, G279S); settings: [35S]GTPγS; CPA at EC80; ratio over basal activity of wild type or mutant hA1AR
T2 sequence (P30542 1-326 G279S): T1 sequence (P30542 1-326 H78L) with L78H, G279S
Description: (§2) Transient transfection of CHO cells with wild type or mutated hA1AR plasmid constructs was performed using a polyethylenimine (PEI) method. Cells were seeded in 10-cm culture dishes to achieve 50–60% confluency 24 h prior to transfection. On the day of transfection, cells were transfected with a PEI: DNA ratio of 3:1 and a plasmid DNA amount of 10 μg/dish. Moreover, 24 h post-transfection, the medium was refreshed, and 48 h after transfection, cells were collected and membranes were prepared as previously described. Membranes were aliquoted in 250 or 100 μL and stored at −80 °C. Membrane protein concentrations were determined using the BCA method.
(§3) [^35S]GTPγS binding assays were adapted from a previously published method. […] Then, 20 µL of [^35S]GTPγS (final concentration of 0.3 nM) was added to each well, followed by 90 min of incubation at 25 °C. Incubations were terminated and filter-bound radioactivity was measured as described above.
as §1

hA1AR H78L^3.23 [2] = target: T1, hA1AR H78L^3.23; settings: [35S]GTPγS; CPA at EC80; ratio over basal activity of wild type or mutant hA1AR
Description: as §2, §3, §1

hA1AR L134F^4.52 = target: T3, hA1AR L134F^4.52 (Homo sapiens, UniProt P30542, L134F); settings: [35S]GTPγS; CPA at EC80; ratio over basal activity of wild type or mutant hA1AR
T3 sequence (P30542 1-326 L134F): T1 sequence (P30542 1-326 H78L) with L78H, L134F
Description: as §2, §3, §1

hA1AR S246T^6.47 = target: T4, hA1AR S246T^6.47 (Homo sapiens, UniProt P30542, S246T); settings: [35S]GTPγS; CPA at EC80; ratio over basal activity of wild type or mutant hA1AR
T4 sequence (P30542 1-326 S246T): T1 sequence (P30542 1-326 H78L) with L78H, S246T
Description: as §2, §3, §1

hA1AR W188C^5.46 = target: T5, hA1AR W188C^5.46 (Homo sapiens, UniProt P30542, W188C); settings: [35S]GTPγS; CPA at EC80; ratio over basal activity of wild type or mutant hA1AR
T5 sequence (P30542 1-326 W188C): T1 sequence (P30542 1-326 H78L) with L78H, W188C
Description: as §2, §3, §1

wild type hA1AR = target: T6, wild type hA1AR (Homo sapiens, UniProt P30542); settings: [35S]GTPγS; CPA at EC80; ratio over basal activity of wild type or mutant hA1AR
T6 sequence (P30542 1-326): T1 sequence (P30542 1-326 H78L) with L78H
Description: as §2, §3, §1

## CCCn1c(=O)c2[nH]c(C3CCCC3)nc2n(CCC)c1=O [DPCPX, 8-cyclopentyl-1,3-dipropylxanthine]
hA1AR H78L^3.23 [1]
  reduction of constitutive activity by inverse agonist: not reduced
hA1AR G279S^7.44
  Imax: 0.65 ± 0.08
hA1AR H78L^3.23 [2]
  Imax: 0.83 ± 0.03
hA1AR L134F^4.52
  Imax: 0.68 ± 0.01
hA1AR S246T^6.47
  Imax: 0.70 ± 0.05
hA1AR W188C^5.46
  Imax: 0.74 ± 0.03
Wild type hA1AR
  Imax: 0.67 ± 0.05
